Results reported in paper PMC1079869 (BMC Neuroscience, 2005).
Square brackets hold non-standard residues; d marks the D form. Peptide text beside a SMILES is read from it.

What was measured:
[1] = molecular target: T1, c-MYC-tagged human delta opioid receptor (Homo sapiens, UniProt P41143); experiment: Tb-DeltI saturation binding on CHO/MYChDOR cell membranes (time-resolved fluorometry); conditions: 0.01 – 781.25 nM Tb-DeltI; 6 μg membranes; pH 7.5, 90 min room temperature; nonspecific with 1 μM DeltI; Figure 4B
Protocol: The cells were collected with PBS + 0.2 % EDTA (w/v) and washed with cold PBS. The CHO/MYChDOR or CHO-K1 cells were suspended into ice-cold 50 mM Tris/HCl, 5 mM EDTA, pH 7.5 and homogenized with Potter S-homogenisator on ice. The homogenate was centrifuged 47800 × g at 4°C and the pellet was suspended into the Tris/EDTA buffer and the homogenization/centrifugation was repeated. The pellet was suspended into cold binding assay incubation buffer and the protein content was measured with the Bradford method.
6 μg of crude membrane preparations or whole cells (25 000 cell/well) that were plated one day before experiment and fixed with 4 % PFA for 10 min at room temperature, were used in the saturation binding experiments. The whole cell assays were carried out on normal cell culture plates and the assays with membrane preparations on special filter plates (Pall Life Sciences). […] Thereafter, 40 μl Delfia enhancer that changes the pH of the assay solution appropriate for Tb-fluorescence was added, and the plates were further incubated for 5 min on a shaker. The time-resolved fluorescence of the released Tb-ion was measured with Victor^2 Multilabel counter (Perkin Elemer Wallac, Turku, Finland).

[2] = molecular target: T1, c-MYC-tagged human delta opioid receptor; experiment: Tb-DeltI binding on CHO/MYChDOR whole cells, effect of (1DMe)NPYF (time-resolved fluorometry); conditions: whole cells, relative BMAX, n = 3
Protocol: 6 μg of crude membrane preparations or whole cells (25 000 cell/well) that were plated one day before experiment and fixed with 4 % PFA for 10 min at room temperature, were used in the saturation binding experiments. The whole cell assays were carried out on normal cell culture plates and the assays with membrane preparations on special filter plates (Pall Life Sciences). The cells or membranes were incubated in 50 mM Tris/HCl pH 7.5; 2.5 mM MgCl2; 60 mM NaCl; 25 μM EDTA, 0.2 % BSA (w/v) for 90 min at room temperature with 0.01 – 781.25 nM Tb-DeltI in the presence or absence of 1 or 5 μM unlabeled DeltI. To study the effect of (1DMe)NPYF on the Tb-DeltI binding, 1–1000 nM (1DMe)NPYF was added together with unlabeled DeltI. After the incubation the unbound Tb-DeltI was removed by washing the plates four times with 50 mM Tris/HCl pH 7.5; 2.5 mM MgCl2. Vacuum pump system was used to wash the filter plates. Since the chelate-bound Tb-ion is nonfluorescent, it needed to be released from the complex. In order to release Tb-ion from the chelate 150 μl Delfia enhancement solution was added to the wells and the plates were incubated on a shaker for 15 min. Thereafter, 40 μl Delfia enhancer that changes the pH of the assay solution appropriate for Tb-fluorescence was added, and the plates were further incubated for 5 min on a shaker. The time-resolved fluorescence of the released Tb-ion was measured with Victor^2 Multilabel counter (Perkin Elemer Wallac, Turku, Finland).

T1 sequence (P41143 whole entry): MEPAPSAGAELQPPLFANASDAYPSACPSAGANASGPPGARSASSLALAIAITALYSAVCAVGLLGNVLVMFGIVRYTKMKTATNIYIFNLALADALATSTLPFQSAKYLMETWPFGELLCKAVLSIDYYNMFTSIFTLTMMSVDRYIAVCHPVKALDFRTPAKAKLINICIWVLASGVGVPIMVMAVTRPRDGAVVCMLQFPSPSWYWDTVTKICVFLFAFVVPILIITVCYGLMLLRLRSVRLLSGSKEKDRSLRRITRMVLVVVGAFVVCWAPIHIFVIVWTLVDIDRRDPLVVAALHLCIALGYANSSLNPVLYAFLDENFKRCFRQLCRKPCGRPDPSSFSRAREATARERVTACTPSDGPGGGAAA

## CC(C)[C@H](NC(=O)[C@H](CC(=O)O)NC(=O)[C@H](Cc1ccccc1)NC(=O)[C@@H](C)NC(=O)[C@H](Cc1ccc(O)cc1)NC(=O)[C@@H](N)CS)C(=O)N[C@H](C(=O)NCC(N)=O)C(C)C [Tb-DeltI] (H-CY[dA]FDVVG-NH2; N-terminus and C-terminus assumed)
[1]
  Tb-DeltI binding to cell membranes: dose-dependently and the binding was saturable at a nanomolar range
[2]; 0 nM (1DMe)NPYF
  BMAX for Tb-DeltI: 1.60 ± 0.06 pmol/cell
[2]; in presence of 1 nM (1DMe)NPYF, *** p < 0.001 vs absence of (1DMe)NPYF
  BMAX for Tb-DeltI: 0.70 ± 0.08 *** pmol/cell
[2]; in presence of 10 nM (1DMe)NPYF, *** p < 0.001 vs absence of (1DMe)NPYF
  BMAX for Tb-DeltI: 0.89 ± 0.06 *** pmol/cell
[2]; in presence of 100 nM (1DMe)NPYF
  BMAX for Tb-DeltI: 1.42 ± 0.11 pmol/cell
[2]; in presence of 1000 nM (1DMe)NPYF
  BMAX for Tb-DeltI: 1.49 ± 0.10 pmol/cell
